The text below walks through data of US9573961B2, “Inhibitors of the renal outer medullary potassium channel” (Merck Sharp & Dohme Corp., priority 2012, dated 2017).

As usually defined, the IC50 is the concentration that inhibits the measured activity by half.

Kir1.1 (ROMK1), sequence (P48048 whole entry): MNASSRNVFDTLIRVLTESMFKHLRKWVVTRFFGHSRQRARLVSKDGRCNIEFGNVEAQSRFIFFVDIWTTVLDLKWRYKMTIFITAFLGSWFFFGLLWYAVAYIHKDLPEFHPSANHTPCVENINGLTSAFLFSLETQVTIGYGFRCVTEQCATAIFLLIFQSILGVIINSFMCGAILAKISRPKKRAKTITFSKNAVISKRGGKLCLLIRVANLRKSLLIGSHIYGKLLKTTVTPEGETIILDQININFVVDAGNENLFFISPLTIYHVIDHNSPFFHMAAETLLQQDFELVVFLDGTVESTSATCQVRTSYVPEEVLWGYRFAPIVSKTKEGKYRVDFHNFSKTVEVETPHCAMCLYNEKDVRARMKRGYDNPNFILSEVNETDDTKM

For one test, the target named is hROMK (hKir1.1) (Homo sapiens (Human), UniProt P48048). The test can be described thus: Thallium Flux Assay (ROMK channel functional thallium flux, FLIPR-Tetra). To be noted: HEK293 cells stably expressing hROMK (hKir1.1); read-out: Thallium Flux IC50. Type of test: cell-based. The protocol: Cell Culture Conditions—HEK293 cells stably expressing hROMK (hKir1.1) were grown at 37° C. in a 10% CO2 humidified incubator in complete growth media: Dulbecco's Modified Eagle Medium supplemented with non-essential amino acids, Penicillin/Streptomycin/Glutamine, G418 and FBS. At >80% confluency, aspirate the media from the flask and rinse with 10 mL Calcium/Magnesium-free PBS. […] To dislodge the cell, gently bang the side of the flask with your hand. Triturate the cells completely and then transfer the cells to 25 mL complete media. Centrifuge at 1,500 rpm for 6 min followed by resuspension in complete growth media and determine cell concentration. […] Under ideal growth conditions and appropriate tissue culture practices, this cell line is stable for 40-45 passages.
hROMK (hKir1.1), sequence (P48048 whole entry): as above
FluxOR Kit Components (Invitrogen F10017) • FluxOR™ Reagent (Component A) • FluxOR™ Assay Buffer (Component B)—10× Concentrate • PowerLoad™ Concentrate (Component C)—100× Concentrate • Probenecid (Component D)—Lyophilized sample is kept at −20° C. Water soluble, 100× after solubilization in 1 mL water. […] Store at 4° C. • Thallium sulfate (Tl2SO4) Concentrate (Component G)—50 mM in water. Store at 4° C. • DMSO (dimethyl sulfoxide, Component H)—1 mL (100%)
Can be stored at room temperature • Stimulant Buffer (prepared at 5× final concentration in 1× FluxOR™ Chloride-Free Buffer): 7.5 mM Thallium sulfate and 0.75 mM Potassium sulfate (to give a final assay concentration of 3 mM Thallium/0.3 mM Potassium). Store at 4° C. when not in use. If kept sterile, this solution is good for months.
Assay Protocol—The ROMK channel functional thallium flux assay is performed in 384 wells, using the FLIPR-Tetra instrument. HEK-hKir1.1 cells are seeded in Poly-D-Lysine microplates and kept in a 37° C.-10% CO2 incubator overnight. On the day of the experiment, the growth media is replaced with the FluxOR™ reagent loading buffer and incubated, protected from light, at ambient temperature (23-25° C.) for 90 min. The loading buffer is replaced with assay buffer±test compound followed by 30 min incubation at ambient temperature, where the Thallium/Potassium stimulant is added to the microplate.
Step Protocol • 1. Seed HEK-hKir1.1 cells (50 μl at 20,000 cells/well) in 384-well PDL coated Microplates • 2. Allow cells to adhere overnight in humidified 37° C./10% CO2 incubator • 3. Completely remove cell growth media from microplate and replace with 25 μl loading buffer • 4. Incubate Microplate at room temperature, protected form light, for 90 min • 5. Remove loading buffer and replace with 25 μl 1× Assay Buffer±test compound. • 6. Incubate microplate at room temperature, protected from light, for 30 min • 7. […] Excitation=400 nm, Emission=460 & 580 nm. Collect data for ˜10 min.
Data Calculation—The fluorescence intensity of wells containing 3 μM of a standard control ROMK inhibitor of the present invention is used to define the ROMK-sensitive component of thallium flux. Fluorescence in the presence of test compounds is normalized to control values to provide % fluorescence change.
`COc1ccc([C@@H]2CN3CCN(C(=O)C4CCc5cc(-n6cnnn6)ccc54)C[C@H]3CO2)c(C)c1C#N` (stereo partly drawn) [Example 63, 6-methoxy-2-methyl-3-[(3R,9aS)-8-{[5-(1H-tetrazol-1-yl)-2,3-dihydro-1H-inden-1-yl]carbonyl}octahydropyrazino[2,1-c][1,4]oxazin-3-yl]benzonitrile]: the IC50 turned out to be 180 nM.
As to `Cc1c([C@@H]2CN3CCN(C(=O)Cc4ccc(-n5cnnn5)cc4)C[C@H]3CO2)ccc(Cl)c1C#N` [Example 34, 6-chloro-2-methyl-3-[(3R,9aS)-8-{[4-(1H-tetrazol-1-yl)phenyl]acetyl}octahydropyrazino[2,1-c][1,4]oxazin-3-yl]benzonitrile], the IC50 was found to be 190 nM.
As for `COc1ccc([C@@H]2CN3CCN(C(=O)Cc4ccc(-n5cnnn5)cc4)C[C@H]3CO2)c(F)c1C#N` [Example 25, 2-fluoro-6-methoxy-3-[(3R,9aS)-8-{[4-(1H-tetrazol-1-yl)phenyl]acetyl}octahydropyrazino[2,1-c][1,4]oxazin-3-yl]benzonitrile], the IC50 came out at 150 nM.
Turning to `Cc1c([C@H]2CN3CCN(C(=O)CCc4cccc(-n5cnnn5)c4)CC3CO2)ccc(F)c1C#N` (stereo in doubt) [Example 73, 6-fluoro-2-methyl-3-[(3S,9aS)-8-{3-[3-(1H-tetrazol-1-yl)phenyl]propanoyl}octahydropyrazino[2,1-c][1,4]oxazin-3-yl]benzonitrile], the IC50 is 140 nM.
Take `Cc1c([C@@H]2CN3CCN(C(=O)CCc4cccc(-n5cnnn5)c4)C[C@H]3CO2)ccc(F)c1C#N` [Example 72, 6-fluoro-2-methyl-3-[(3R,9aS)-8-{3-[3-(1H-tetrazol-1-yl)phenyl]propanoyl}octahydropyrazino[2,1-c][1,4]oxazin-3-yl]benzonitrile]: the IC50 is 270 nM.
`Cc1c([C@H]2CN3CCN(C(=O)CCc4cccc(-n5cnnn5)c4)C[C@H]3CO2)ccc2c1COC2=O` [Example 71, 4-methyl-5-[(3S,9aS)-8-{3-[3-(1H-tetrazol-1-yl)phenyl]propanoyl}octahydropyrazino[2,1-c][1,4]oxazin-3-yl]-2-benzofuran-1(3H)-one]: the IC50 is 490 nM.

Another test deals with Kir1.1 (ROMK1) (Homo sapiens (Human), UniProt P48048). As to the kind of experiment: Electrophysiology Assay (whole cell voltage clamp, IonWorks Quattro). It is filed as cell-based. To be noted: Chinese hamster ovary cells stably expressing Kir1.1; block during voltage step to 0 mV; read-out: Electrophysiology IC50. The protocol:
Chinese hamster ovary cells stably expressing Kir1.1 channels were maintained in T-75 flasks in cell culture media in a humidified 10% CO2 incubator at 37° C. Prior to an experiment, Kir1.1 expression was induced by overnight incubation with 1 mM sodium butyrate. […] After centrifugation, the cell pellet was resuspended in approximately 4.0 mL of bath solution and placed in the IonWorks instrument. The intracellular solution consisted of (in mM): 80 K gluconate, 40 KCl, 20 KF, 3.2 MgCl2, 3 EGTA, 5 Hepes, pH 7.4. Electrical access to the cytoplasm was achieved by perforation in 0.13 mg/mL amphotericin B for 4 min. […] Voltage protocols and current recordings were performed using the IonWorks HT software/hardware system. Currents were sampled at 1 kHz. No correction for liquid junction potentials was used. The test pulse, consisting of a 100 ms step to 0 mV from a holding potential of −70 mV, followed by a 100 ms voltage ramp from −70 mV to +70 mV, was applied before and after a 6 min compound incubation period. Test compounds were prepared by diluting DMSO stock solutions into the bath solution at 3× the final concentration and placed in the instrument in 96-well polypropylene plates. Current amplitudes were measured using the IonWorks software.
A general note: In patch-clamp work, channel activity is measured electrically.
Turning to `COc1ccc([C@@H]2CN3CCN(C(=O)C4CCc5cc(-n6cnnn6)ccc54)C[C@H]3CO2)c(C)c1C#N` (stereo partly drawn) [Example 63, 6-methoxy-2-methyl-3-[(3R,9aS)-8-{[5-(1H-tetrazol-1-yl)-2,3-dihydro-1H-inden-1-yl]carbonyl}octahydropyrazino[2,1-c][1,4]oxazin-3-yl]benzonitrile], the IC50 was 450 nM.
Take `COc1ccc([C@@H]2CN3CCN(C(=O)Cc4ccc(-n5cnnn5)cc4)C[C@H]3CO2)c(F)c1C#N` [Example 25, 2-fluoro-6-methoxy-3-[(3R,9aS)-8-{[4-(1H-tetrazol-1-yl)phenyl]acetyl}octahydropyrazino[2,1-c][1,4]oxazin-3-yl]benzonitrile]: the IC50 was found to be 200 nM.
In the case of `N#Cc1cc([C@H]2CN3CCN(C(=O)C4CCc5cc(-n6cnnn6)ccc54)C[C@H]3CO2)ccc1F` (stereo partly drawn) [Example 3, 2-fluoro-5-[(3S,9aS)-8-{[5-(1H-tetrazol-1-yl)-2,3-dihydro-1H-inden-1-yl]carbonyl}octahydropyrazino[2,1-c][1,4]oxazin-3-yl]benzonitrile], the IC50 amounted to 180 nM.
As to `O=C1OCc2cc([C@H]3CN4CCN(C(=O)Cc5ccc(-n6cnnn6)cc5)C[C@H]4CO3)ccc21` [Example 7, 5-[(3S,9aS)-8-{[4-(1H-tetrazol-1-yl)phenyl]acetyl}octahydropyrazino[2,1-c][1,4]oxazin-3-yl]-2-benzofuran-1(3H)-one], the IC50 came out at 170 nM.
Same read-out and setting: in the case of `COc1cc(CC(=O)N2CCN3C[C@H](c4ccc5c(c4)COC5=O)OC[C@@H]3C2)c(F)cc1C#N` [Example 9, 5-fluoro-2-methoxy-4-{2-oxo-2-[(3S,9aS)-3-(1-oxo-1,3-dihydro-2-benzofuran-5-yl)hexahydropyrazino[2,1-c][1,4]oxazin-8(1H)-yl]ethyl}benzonitrile] it was 140 nM.
Turning to `O=C1OCc2cc([C@@H]3CN4CCN(C(=O)Cc5ccc(-n6cnnn6)cc5)C[C@H]4CO3)ccc21` [Example 8, 5-[(3R,9aS)-8-{[4-(1H-tetrazol-1-yl)phenyl]acetyl}octahydropyrazino[2,1-c][1,4]oxazin-3-yl]-2-benzofuran-1(3H)-one], the IC50 came out at 140 nM.
As for `Cc1c([C@H]2CN3CCN(C(=O)C4Cc5ccc(-n6cnnn6)cc5C4)C[C@H]3CO2)ccc(F)c1C#N` (stereo partly drawn) [Example 74, 6-fluoro-2-methyl-3-[(3S,9aS)-8-{[5-(1H-tetrazol-1-yl)-2,3-dihydro-1H-inden-2-yl]carbonyl}octahydropyrazino[2,1-c][1,4]oxazin-3-yl]benzonitrile], the IC50 stood at 160 nM.
With `N#Cc1cc([C@@H]2CN3CCN(C(=O)C4CCc5cc(-n6cnnn6)ccc54)C[C@H]3CO2)ccc1F` (stereo partly drawn) [Example 4, 2-fluoro-5-[(3R,9aS)-8-{[5-(1H-tetrazol-1-yl)-2,3-dihydro-1H-inden-1-yl]carbonyl}octahydropyrazino[2,1-c][1,4]oxazin-3-yl]benzonitrile], the IC50 stood at 190 nM.
As for `COc1cc(CC(=O)N2CCN3C[C@H](c4ccc5c(c4C)COC5=O)OC[C@@H]3C2)c(F)cc1C#N` [Example 16, 5-fluoro-2-methoxy-4-{2-[(3S,9aS)-3-(4-methyl-1-oxo-1,3-dihydro-2-benzofuran-5-yl)hexahydropyrazino[2,1-c][1,4]oxazin-8(1H)-yl]-2-oxoethyl}benzonitrile], the IC50 was found to be 180 nM.
In the case of `O=C1OCc2cc([C@@H]3CN4CCN(C(=O)C5CCc6cc(-n7cnnn7)ccc65)C[C@H]4CO3)ccc21` (stereo partly drawn) [Example 12, 5-[(3R,9aS)-8-{[5-(1H-tetrazol-1-yl)-2,3-dihydro-1H-inden-1-yl]carbonyl}octahydropyrazino[2,1-c][1,4]oxazin-3-yl]-2-benzofuran-1(3H)-one], the IC50 came out at 250 nM.
Still for that read-out and setting: then `O=C1OCc2cc([C@H]3CN4CCN(C(=O)C5CCc6cc(-n7cnnn7)ccc65)C[C@H]4CO3)ccc21` (stereo partly drawn) [Example 11, 5-[(3S,9aS)-8-{[5-(1H-tetrazol-1-yl)-2,3-dihydro-1H-inden-1-yl]carbonyl}octahydropyrazino[2,1-c][1,4]oxazin-3-yl]-2-benzofuran-1(3H)-one], with 340 nM.
As to `COc1cc(CC(=O)N2CCN3C[C@@H](c4ccc5c(c4C)COC5=O)OC[C@@H]3C2)c(F)cc1C#N` [Example 17, 5-fluoro-2-methoxy-4-{2-[(3R,9aS)-3-(4-methyl-1-oxo-1,3-dihydro-2-benzofuran-5-yl)hexahydropyrazino[2,1-c][1,4]oxazin-8(1H)-yl]-2-oxoethyl}benzonitrile], the IC50 turned out to be 160 nM.

The test is the same for the next values; noted with them: Electrophysiology IC50, Chinese hamster ovary cells stably expressing Kir1.1; block during voltage step to 0 mV.
Turning to `Cc1c([C@@H]2CN3CCN(C(=O)Cc4ccc(-n5cnnn5)cc4)C[C@H]3CO2)ccc(Cl)c1C#N` [Example 34, 6-chloro-2-methyl-3-[(3R,9aS)-8-{[4-(1H-tetrazol-1-yl)phenyl]acetyl}octahydropyrazino[2,1-c][1,4]oxazin-3-yl]benzonitrile], the IC50 was 200 nM.
Turning to `COc1cc(CC(=O)N2CCN3C[C@@H](c4ccc(F)c(C#N)c4)OC[C@@H]3C2)ccc1C#N` [Example 6], the midpoint of inhibition, the IC50, lay at 160 nM.
Still for that read-out and setting: in the case of `N#Cc1cc([C@@H]2CN3CCN(C(=O)Cc4cc(F)c(C#N)cc4F)C[C@H]3CO2)ccc1F` [Example 5, 4-{2-[(3R,9aS)-3-(3-cyano-4-fluorophenyl)hexahydropyrazino[2,1-c][1,4]oxazin-8(1H)-yl]-2-oxoethyl}-2,5-difluorobenzonitrile] it was 120 nM.
Compound `Cc1c([C@H]2CN3CCN(C(=O)Cc4ccc(-n5cnnn5)cc4)C[C@H]3CO2)ccc2c1COC2=O` [Example 1B, 4-methyl-5-[(3S,9aS)-8-{[4-(1H-tetrazol-1-yl)phenyl]acetyl}octahydropyrazino[2,1-c][1,4]oxazin-3-yl]-2-benzofuran-1(3H)-one] had an IC50 of 330 nM.
